Patent publication US9914730B2, “Azaquinazoline inhibitors of Atypical protein Kinase C” (Ignyta, Inc., priority 2012, dated 2018)

Target: T1, full-length human PKCι (Homo sapiens, UniProt P41743)
T1 construct: Recombinant, full-length human PKCι expressed in Sf21 insect cells is also commercially available; purchased; host or cells: Sf21 insect cells
T1 sequence (P41743 1-596): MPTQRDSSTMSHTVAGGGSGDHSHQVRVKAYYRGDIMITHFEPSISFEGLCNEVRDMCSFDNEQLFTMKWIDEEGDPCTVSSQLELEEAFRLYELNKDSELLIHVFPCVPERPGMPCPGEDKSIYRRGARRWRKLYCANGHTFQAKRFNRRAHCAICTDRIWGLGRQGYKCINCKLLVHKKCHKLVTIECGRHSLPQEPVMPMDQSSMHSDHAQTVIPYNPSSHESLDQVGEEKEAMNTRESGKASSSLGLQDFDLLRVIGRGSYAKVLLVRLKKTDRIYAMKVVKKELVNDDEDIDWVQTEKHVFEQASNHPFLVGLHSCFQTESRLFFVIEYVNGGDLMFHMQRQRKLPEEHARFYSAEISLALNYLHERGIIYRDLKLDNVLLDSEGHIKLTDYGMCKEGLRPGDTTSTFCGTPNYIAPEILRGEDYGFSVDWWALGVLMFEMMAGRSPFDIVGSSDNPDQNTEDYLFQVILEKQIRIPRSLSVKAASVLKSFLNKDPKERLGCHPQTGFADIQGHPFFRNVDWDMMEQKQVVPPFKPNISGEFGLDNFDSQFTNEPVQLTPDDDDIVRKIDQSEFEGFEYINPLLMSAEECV
Assay: PKCι IC50 IMAP assay, full-length PKCι at 150 μM ATP
Type: biochemical
Settings: read-out: IC50 in IMAP assay against full length PKCi at 150 μM ATP
Outline: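 Full-length human PKCι from Sf21 cells, typically 15 pM, with 100 nM 5FAM-PKCε pseudosubstrate peptide and 150 μM ATP (5× apparent KM), 60 min at room temperature, 4% DMSO. IMAP fluorescence polarisation read-out; inhibition normalised to no-compound and no-enzyme controls, IC50 from curve fit.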

SMILES	IC50 [nM]
COc1cccc(Nc2cc(-c3nc(N4CCNCC4)c4c(C5CC5)cncc4n3)ccn2)c1 [Example 571, [4-(5-Cyclopropyl-4-piperazin-1-yl-pyrido[3,4-d]pyrimidin-2-yl)-pyridin-2-yl]-(3-methoxy-phenyl)-amine]	< 100
Cc1ccc(Nc2cc(-c3nc(N4CCNCC4)c4c(C5CC5)cncc4n3)ccn2)c(Cl)c1 [Example 572, (2-Chloro-4-methyl-phenyl)-[4-(5-cyclopropyl-4-piperazin-1-yl-pyrido[3,4-d]pyrimidin-2-yl)-pyridin-2-yl]-amine]	< 100
Cc1ccc(Nc2cc(-c3nc(N4CCNCC4)c4c(C5CC5)cncc4n3)ccn2)c(C)c1 [Example 573, [4-(5-Cyclopropyl-4-piperazin-1-yl-pyrido[3,4-d]pyrimidin-2-yl)-pyridin-2-yl]-(2,4-dimethyl-phenyl)-amine]	< 100
Cc1cccc(Nc2cc(-c3nc(N4CCNCC4)c4c(C5CC5)cncc4n3)ccn2)c1F [Example 574, [4-(5-Cyclopropyl-4-piperazin-1-yl-pyrido[3,4-d]pyrimidin-2-yl)-pyridin-2-yl]-(2-fluoro-3-methyl-phenyl)-amine]	< 100
Cc1ccc(Nc2cc(-c3nc(N4CCNCC4)c4c(C5CC5)cncc4n3)ccn2)c(F)c1 [Example 575, [4-(5-Cyclopropyl-4-piperazin-1-yl-pyrido[3,4-d]pyrimidin-2-yl)-pyridin-2-yl]-(2-fluoro-4-methyl-phenyl)-amine]	< 100
Fc1ccc(Cl)c(Nc2cc(-c3nc(N4CCNCC4)c4c(C5CC5)cncc4n3)ccn2)c1 [Example 576, (2-Chloro-5-fluoro-phenyl)-[4-(5-cyclopropyl-4-piperazin-1-yl-pyrido[3,4-d]pyrimidin-2-yl)-pyridin-2-yl]-Amine]	< 100

The remaining lines, values ahead:

IC50 [nM]	SMILES
< 100	c1cc(-c2nc(N3CCNCC3)c3c(C4CC4)cncc3n2)cc(Nc2ccn3nccc3c2)n1 [Example 564, [4-(5-Cyclopropyl-4-piperazin-1-yl-pyrido[3,4-d]pyrimidin-2-yl)-pyridin-2-yl]-pyrazolo[1,5-a]pyridin-5-yl-amine]
< 100	FC(F)(F)c1cnnc(Nc2cc(-c3nc(N4CCNCC4)c4c(C5CC5)cncc4n3)ccn2)c1 [Example 565, [4-(5-Cyclopropyl-4-piperazin-1-yl-pyrido[3,4-d]pyrimidin-2-yl)-pyridin-2-yl]-(5-trifluoromethyl-pyridazin-3-yl)-amine]
< 100	COc1ccc(F)c(Nc2cc(-c3nc(N4CCNCC4)c4c(C5CC5)cncc4n3)ccn2)c1F [Example 566, [4-(5-Cyclopropyl-4-piperazin-1-yl-pyrido[3,4-d]pyrimidin-2-yl)-pyridin-2-yl]-(2,6-difluoro-3-methoxy-phenyl)-amine]
< 100	CCOc1ccc(F)c(Nc2cc(-c3nc(N4CCNCC4)c4c(C5CC5)cncc4n3)ccn2)c1F [Example 567, [4-(5-Cyclopropyl-4-piperazin-1-yl-pyrido[3,4-d]pyrimidin-2-yl)-pyridin-2-yl]-(3-ethoxy-2,6-difluoro-phenyl)-amine]
< 100	Cc1cccc(Nc2cc(-c3nc(N4CCNCC4)c4c(C5CC5)cncc4n3)ccn2)c1Cl [Example 568, (2-Chloro-3-methyl-phenyl)-[4-(5-cyclopropyl-4-piperazin-1-yl-pyrido[3,4-d]pyrimidin-2-yl)-pyridin-2-yl]-amine]
< 100	C[C@H]1CN(c2nc(-c3ccnc(Nc4ccccc4)c3)nc3cncc(C4CC4)c23)CCN1 [Example 569, {4-[5-Cyclopropyl-4-((S)-3-methyl-piperazin-1-yl)-pyrido[3,4-d]pyrimidin-2-yl]-pyridin-2-yl}-phenyl-amine]
< 100	Fc1ccc(Nc2cc(-c3nc(N4CCNCC4)c4c(C5CC5)cncc4n3)ccn2)c(Cl)c1 [Example 570, (2-Chloro-4-fluoro-phenyl)-[4-(5-cyclopropyl-4-piperazin-1-yl-pyrido[3,4-d]pyrimidin-2-yl)-pyridin-2-yl]-amine]
